In PMC10319141, “Imidazoquinolines with improved pharmacokinetic properties induce a high IFNα to TNFα ratio in vitro and in vivo” (Frontiers in Immunology, 2023):
Where two headings read alike, the source gives them in different places.

Legend:
human TLR7 = target: T1, human TLR7 (Homo sapiens, UniProt Q9NYK1); assay: HEK-Blue hTLR7 SEAP reporter assay; type: cell-based; conditions: for TLR7 activity rel. to assay max: average maximal SEAP secretion relative to maximum secretion observed in the assay
T1 construct: host or cells: HEK blue hTLR7 reporter cells
T1 sequence (Q9NYK1 27-1049): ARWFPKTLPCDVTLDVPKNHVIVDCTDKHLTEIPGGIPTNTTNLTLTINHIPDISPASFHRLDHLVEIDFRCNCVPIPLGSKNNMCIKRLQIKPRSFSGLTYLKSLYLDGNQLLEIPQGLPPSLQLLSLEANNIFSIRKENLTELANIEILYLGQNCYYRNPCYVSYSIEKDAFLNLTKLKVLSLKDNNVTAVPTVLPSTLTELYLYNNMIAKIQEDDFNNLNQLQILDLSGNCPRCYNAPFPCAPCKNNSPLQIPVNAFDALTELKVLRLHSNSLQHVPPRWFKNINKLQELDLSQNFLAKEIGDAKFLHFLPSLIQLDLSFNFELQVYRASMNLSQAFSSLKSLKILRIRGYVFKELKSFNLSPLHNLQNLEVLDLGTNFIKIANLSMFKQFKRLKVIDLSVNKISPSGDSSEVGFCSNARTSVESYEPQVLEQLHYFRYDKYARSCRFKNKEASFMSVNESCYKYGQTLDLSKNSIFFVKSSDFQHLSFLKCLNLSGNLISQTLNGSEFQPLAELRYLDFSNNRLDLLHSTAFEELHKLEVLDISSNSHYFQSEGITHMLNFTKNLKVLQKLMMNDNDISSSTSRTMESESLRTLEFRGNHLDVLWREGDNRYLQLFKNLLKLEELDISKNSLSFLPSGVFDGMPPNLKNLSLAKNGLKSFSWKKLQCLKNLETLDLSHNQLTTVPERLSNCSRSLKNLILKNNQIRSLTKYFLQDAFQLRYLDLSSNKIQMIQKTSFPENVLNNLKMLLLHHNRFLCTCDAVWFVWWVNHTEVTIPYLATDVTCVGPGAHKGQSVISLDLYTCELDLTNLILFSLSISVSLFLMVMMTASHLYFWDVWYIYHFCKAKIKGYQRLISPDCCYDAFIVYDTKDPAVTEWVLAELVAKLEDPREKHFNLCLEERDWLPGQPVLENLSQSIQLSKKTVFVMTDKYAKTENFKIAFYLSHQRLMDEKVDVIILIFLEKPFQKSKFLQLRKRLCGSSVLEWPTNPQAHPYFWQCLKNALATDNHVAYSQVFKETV
Description: (§1) HEK blue hTLR7 or hTLR8 reporter cells (Invivogen) were cultivated in DMEM High Glucose (Biowest) according to the manufacturer’s instructions. Cells were treated with test compounds and controls at various concentrations in serum-free DMEM and incubated at 37°C, 5% CO2 for 24 h before supernatants were collected.
(§2) Relative secreted embryonic alkaline phosphatase (SEAP) activity in the supernatants was determined by quantification of para-Nitrophenyl Phosphate (pNPP)-turnover. Supernatants were diluted 10-fold in a solution containing 1 mM MgCl2, 1 M diethanolamine and 1 mg/mL pNPP and incubated at RT for 15 min before the reaction was stopped by the addition of 0.25 volumes of 1 M NaOH. Absorbance was measured at 405 nm on a Versamax microplate reader (Molecular Devices) and normalized to the mean of >5 solvent controls.
(§3) To obtain reliable estimates, replicate measurements of a minimum of 2 experiments were normalized to the maximal SEAP activity of a compound in a given experiment and pooled before fitting a non-linear function to the data.

undifferentiated U937 = assay: Helix NIR dye exclusion in undifferentiated U937; type: cell-based; conditions: 25 µM; in words
Description: Exclusion of Helix NIR (BioLegend) was used to assay membrane integrity following compound treatment. Culture conditions for U937 were as described above, undifferentiated cells were incubated with varying concentrations of compound or with solvent. Helix NIR was added to the cells to a final concentration of 10 nM, cells were incubated at RT for 10 min and acquired on a ZE5 Cell Analyzer (Bio-Rad). The cutoff for positive staining was set to approximately the 99th percentile of unstained cells.

human TLR8 = target: T2, human TLR8 (Homo sapiens, UniProt Q9NR97); assay: HEK-Blue hTLR8 SEAP reporter assay; type: cell-based; conditions: for TLR8 activity rel. to assay max: average maximal SEAP secretion relative to maximum secretion observed in the assay; for SEAP secretion from HEK-Blue hTLR-8: in words
T2 construct: host or cells: HEK blue hTLR8 reporter cells
T2 sequence (Q9NR97 27-1041): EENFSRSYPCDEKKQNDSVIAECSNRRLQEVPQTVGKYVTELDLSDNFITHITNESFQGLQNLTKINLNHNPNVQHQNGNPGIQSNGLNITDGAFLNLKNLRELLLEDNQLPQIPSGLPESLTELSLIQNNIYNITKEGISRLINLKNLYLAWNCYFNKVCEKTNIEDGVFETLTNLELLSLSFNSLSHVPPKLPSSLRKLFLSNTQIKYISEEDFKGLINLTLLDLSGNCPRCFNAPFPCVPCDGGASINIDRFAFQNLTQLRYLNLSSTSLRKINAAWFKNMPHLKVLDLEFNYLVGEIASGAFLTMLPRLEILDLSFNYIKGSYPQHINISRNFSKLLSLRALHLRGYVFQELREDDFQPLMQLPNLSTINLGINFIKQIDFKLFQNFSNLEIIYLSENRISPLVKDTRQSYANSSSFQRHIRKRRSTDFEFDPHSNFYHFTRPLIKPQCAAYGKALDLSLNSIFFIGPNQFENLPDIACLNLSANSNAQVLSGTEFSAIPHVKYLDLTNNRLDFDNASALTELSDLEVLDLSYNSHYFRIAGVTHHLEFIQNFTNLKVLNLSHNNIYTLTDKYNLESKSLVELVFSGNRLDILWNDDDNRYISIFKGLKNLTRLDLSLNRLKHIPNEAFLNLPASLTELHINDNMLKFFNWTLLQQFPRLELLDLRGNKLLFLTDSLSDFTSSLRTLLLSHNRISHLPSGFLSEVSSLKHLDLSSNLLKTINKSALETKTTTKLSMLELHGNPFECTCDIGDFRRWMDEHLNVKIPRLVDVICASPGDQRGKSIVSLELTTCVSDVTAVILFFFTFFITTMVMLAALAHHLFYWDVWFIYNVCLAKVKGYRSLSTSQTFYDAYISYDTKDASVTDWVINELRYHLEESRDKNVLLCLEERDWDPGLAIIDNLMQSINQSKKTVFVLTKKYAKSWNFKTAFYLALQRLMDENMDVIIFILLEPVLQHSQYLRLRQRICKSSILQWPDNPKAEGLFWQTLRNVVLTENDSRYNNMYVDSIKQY
Description: as §1, §2, §3

PMA-differentiated U937 = assay: MTT viability assay in PMA-differentiated U937; type: cell-based; conditions: 25 µM; PMA-differentiated U937, 2 days
[1] = Compound concentrations in organs and plasma after three consecutive daily s.c. treatments (Figure 6B, S7); type: in vivo, mice; conditions: for compound plasma level at peak: s.c.; for concentration at 4 h / concentration at 28 h / concentration at 52 h: mouse, sc, repeated daily s.c. treatment; for concentration at 4 h: after 4 h; for concentration at 28 h: after 28 h; for concentration at 52 h: after 52 h
Description: All samples were extracted with 3 or 6 volumes acetonitrile containing terbuthylazine as an internal standard (ACN) relative to either sample weight or volume. Liquid samples (plasma, culture medium, cell suspensions in stability experiments) were diluted in either 3 (culture medium, cell suspensions) or 6 (plasma) volumes ACN, pellet and blood samples were extracted by addition of ACN followed by sonication for 5 min. Organ samples were digested with 0.5 µg/mg Proteinase K (Genaxxon) for 1 h at 50°C before being homogenized using a Fastprep FP-24 5G instrument (MP-Biomedicals). Homogenates were diluted with 6 volumes ACN and homogenized again. All extracts were cleared by centrifugation at ~20.000xg for 10 min at 4°C.
Quantification of analytes was performed on an Agilent 1260/1290 Infinity system fitted with an Agilent C18 Poroshell 120 column (4.6 x 50 mm, 2.7 µm) coupled to a triple quadrupole Sciex API 4000 MS/MS detector. The mobile phase was composed of water containing 0.1% formic acid (eluent A) and acetonitrile containing 0.1% formic acid (eluent B). Gradient used was: 5% B for 0.5 min, to 100% B in 4.5 min, 100% B for 2 min, to 5% B in 0.5 min, 5% for 2.5 min. MS detection parameters are listed in SI Table S1 .
Formulation. Test compounds were prepared for application in either 1% Tween 80, 9% PEG400 in ultrapure water (Biowest) (i.v., i.p., p.o. application) or 5 mM citric acid in 0.9% saline (Braun) (subcutaneous application). If compounds were administered subcutaneously, injections were carried out into the neck crease.
Collection of Samples. Mice were bled from the tail vein at various timepoints. Heparin (Sigma) or K2-EDTA (Sigma) was added to blood samples to a final […] concentration of 10-15 Unit or 5 mM. Plasma was generated by centrifugation at 6800xg for 8 min at 4°C and stored at -80°C until analyzed by ELISA or CBA. Animals were sacrificed after the indicated time points by CO2 inhalation. Heart blood and organs for compound quantification by HPLC-MS/MS were collected post mortem and stored at –20°C until extracted as described above.
Dotted lines indicate the time of repeated compound applications. (A) Cytokine levels in pooled tail plasma of mice from individual treatment groups (n=3 per pool and time point), error bars represent range of two replicate measurements. (B) Peripheral blood was collected from the tail vein before, 15, 30 60, 120, 240, 360 and 480 min after s.c. treatment. Compound concentration in peripheral plasma was analyzed by HPLC-MS/MS, data presented as mean ± SD.
Samples were collected 4 h, 28 h and 52 h after s.c. treatment. Skin samples were sampled
at time points 4 h and 52 h. Compound concentrations were analyzed by HPLC-MS/MS, data

[2] = 95% CI, HEK-blue human TLR7, 24 h, read-out: TLR7 EC50
[3] = Figure S3, axis c/[µM], pooled from 3 experiments, read-out: compound-specific EC50 in dose response plot, HEK Blue hTLR7
[4] = 95% CI, HEK-blue human TLR8, 24 h, read-out: TLR8 EC50
[5] = Figure S4, axis c/[µM], pooled from 3 experiments, read-out: compound-specific EC50 in dose response plot, HEK Blue hTLR8
[6] = brain, read-out: concentration in brain
[7] = liver, read-out: concentration in liver

SMILES: CCCCc1nc2c(N)nc3ccccc3c2n1CCC1CCN(C(=O)OC(C)(C)C)CC1 [A1-boc]
- Average maximal activity in HEK-Blue hTLR7 relative to RSQ (human TLR7): 55%
- EC50 (human TLR7; [2]): 0.39 to 0.69 µM
- EC50 (human TLR7; [3]): 0.527 µM
- TLR7 activity rel. to assay max (human TLR7): 55% ± 7%
- effect on membrane integrity, dye exclusion assay in U937 (undifferentiated U937): negative effects on membrane integrity
- TLR8 activity rel. to assay max (human TLR8): 4% ± 2%
- SEAP secretion from HEK-Blue hTLR-8 (human TLR8): close to baseline
- MTT U937, percent MTT conversion relative to solvent controls (PMA-differentiated U937): 50%

SMILES: CCCCc1nc2c(N)nc3ccccc3c2n1CC1CCN(C(=O)OC(C)(C)C)CC1 [A2-boc]
- Average maximal activity in HEK-Blue hTLR7 relative to RSQ (human TLR7): 86%
- EC50 (human TLR7; [2]): 0.23 to 0.47 µM
- TLR7 activity rel. to assay max (human TLR7): 86% ± 9%
- TLR8 activity rel. to assay max (human TLR8): 4% ± 1%
- SEAP secretion from HEK-Blue hTLR-8 (human TLR8): close to baseline

SMILES: CCCCc1nc2c(N)nc3ccccc3c2n1CC1CCNCC1 [A2]
- Average maximal activity in HEK-Blue hTLR7 relative to RSQ (human TLR7): 81%
- EC50 (human TLR7; [2]): 0.075 to 0.12 µM
- EC50 (human TLR7; [3]): 0.0957 µM
- TLR7 activity rel. to assay max (human TLR7): 81% ± 13%
- maximal induction in HEK-Blue hTLR-8 (lower than that of RSQ) (human TLR8): 57%
- EC50 (human TLR8; [4]): 2.8 to 3.1 µM
- EC50 (human TLR8; [5]): 2.96 µM
- TLR8 activity rel. to assay max (human TLR8): 57% ± 9%

SMILES: CCCCc1nc2c(N)nc3ccccc3c2n1CCOCCOCCN [A3]
- EC50 (human TLR7; [2]): 1 to 1.5 µM
- EC50 (human TLR7; [3]): 1.24 µM
- TLR7 activity rel. to assay max (human TLR7): 62% ± 9%
- maximal induction in HEK-Blue hTLR-8 (lower than that of RSQ) (human TLR8): 36%
- EC50 (human TLR8; [4]): 8.2 to 8.5 µM
- EC50 (human TLR8; [5]): 8.36 µM
- TLR8 activity rel. to assay max (human TLR8): 36% ± 4%

SMILES: CCCCc1nc2c(N)nc3ccccc3c2n1CCOCCOCCO [A4]
- EC50 (human TLR7; [2]): 1.5 to 2.1 µM
- EC50 (human TLR7; [3]): 1.76 µM
- TLR7 activity rel. to assay max (human TLR7): 84% ± 5%
- maximal induction in HEK-Blue hTLR-8 (lower than that of RSQ) (human TLR8): 18%
- EC50 (human TLR8; [4]): 11 to 13 µM
- EC50 (human TLR8; [5]): 12.1 µM
- TLR8 activity rel. to assay max (human TLR8): 18% ± 8%

SMILES: CC(C)Cn1cnc2c(N)nc3ccccc3c21 [IMQ, Imiquimod]
- EC50 (human TLR7; [2]): 5.2 to 8.3 µM
- EC50 (human TLR7; [3]): 6.52 µM
- TLR7 activity rel. to assay max (human TLR7): 35% ± 7%
- compound plasma level at peak ([1]; day 1, 60 min after application): 796 nM
- compound plasma level at peak ([1]; day 2, 60 min after application): 606 nM
- compound plasma level at peak ([1]; day 3, 60 min after application): 608 nM
- concentration at 4 h [1, 6]: 32 nM
- concentration at 28 h [1, 6]: 135 nM
- concentration at 52 h [1, 6]: 177 nM
- concentration at 4 h [1, 7]: 630 nM
- concentration at 28 h [1, 7]: 824 nM
- concentration at 52 h [1, 7]: 645 nM
